{"source": "PubChem BioAssay AID1918991", "about": "(Molecular Pharmacology Branch, DTP, NCI, 2023)", "tested_on": "186277-243-T-J2-PDC complex spheroid growth", "experiment": "Anticancer human tumor 186277-243-T-J2-PDC patient-derived colon adenocarcinoma cell line growth inhibition [AhR]", "details": "for viability, T/C: stronger effect = lower value", "outline": "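Agents were dosed in half-log steps down from roughly clinical Cmax, or from 10 microM where Cmax was unknown, alone and with AhR antagonists. Read-out: percent test/control growth of tumor spheroids containing HUVEC and MSC stromal cells.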", "key": {"[1]": {"details": "curve of first compound, second compound 0.1 µM"}, "[2]": {"details": "curve of first compound, second compound 0.316 µM"}, "[3]": {"details": "curve of first compound, second compound 1 µM"}, "[4]": {"details": "curve of first compound, second compound 3.16 µM"}, "[5]": {"details": "curve of first compound, second compound 10 µM"}}, "note": "Several values for one entry are separate records, joined by “and”; a condition that tells them apart may be missing. Identical values can stand only once.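 Further: spheroids exposed to compounds for seven days before the viability read.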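 Wherever viability, T/C is given: luminescent signal used as a stand-in for viable cell amount; 100% = DMSO vehicle control wells.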", "data": [{"smiles": "Nc1ncn(C2CC(O)C(CO)S2)c(=O)n1", "note": "(stereo unspecified) + Cc1ccccc1N=Nc1ccc(NC(=O)c2ccnn2C)c(C)c1", "values": [{"measurement": "IC50", "setting": "[1]", "result": "> 300", "unit": "nM"}, {"measurement": "IC50", "setting": "[2]", "result": "> 300", "unit": "nM"}, {"measurement": "IC50", "setting": "[3]", "result": "> 300", "unit": "nM"}, {"measurement": "IC50", "setting": "[4]", "result": "> 300", "unit": "nM"}, {"measurement": "IC50", "setting": "[5]", "result": "> 300", "unit": "nM"}, {"measurement": "viability, T/C", "setting": "second compound 0.1 µM, first compound 0.000949 µM", "result": 97.2, "unit": "%"}, {"measurement": "viability, T/C", "setting": "second compound 0.1 µM, first compound 0.003 µM", "result": 123, "unit": "%"}, {"measurement": "viability, T/C", "setting": "second compound 0.1 µM, first compound 0.00949 µM", "result": 119, "unit": "%"}, {"measurement": "viability, T/C", "setting": "second compound 0.1 µM, first compound 0.03 µM", "result": 104, "unit": "%"}, {"measurement": "viability, T/C", "setting": "second compound 0.1 µM, first compound 0.0949 µM", "result": 132, "unit": "%"}, {"measurement": "viability, T/C", "setting": "second compound 0.1 µM, first compound 0.3 µM", "result": 111, "unit": "%"}, {"measurement": "viability, T/C", "setting": "second compound 0.316 µM, first compound 0.000949 µM", "result": 106, "unit": "%"}, {"measurement": "viability, T/C", "setting": "second compound 0.316 µM, first compound 0.003 µM", "result": 106, "unit": "%"}, {"measurement": "viability, T/C", "setting": "second compound 0.316 µM, first compound 0.00949 µM", "result": 105, "unit": "%"}, {"measurement": "viability, T/C", "setting": "second compound 0.316 µM, first compound 0.03 µM", "result": 109, "unit": "%"}, {"measurement": "viability, T/C", "setting": "second compound 0.316 µM, first compound 0.0949 µM", "result": 109, "unit": "%"}, {"measurement": "viability, T/C", "setting": "second compound 0.316 µM, first compound 0.3 µM", "result": 116, "unit": "%"}, {"measurement": "viability, T/C", "setting": "second compound 1 µM, first compound 0.000949 µM", "result": 103, "unit": "%"}, {"measurement": "viability, T/C", "setting": "second compound 1 µM, first compound 0.003 µM", "result": 109, "unit": "%"}, {"measurement": "viability, T/C", "setting": "second compound 1 µM, first compound 0.00949 µM", "result": 100, "unit": "%"}, {"measurement": "viability, T/C", "setting": "second compound 1 µM, first compound 0.03 µM", "result": 127, "unit": "%"}, {"measurement": "viability, T/C", "setting": "second compound 1 µM, first compound 0.0949 µM", "result": 127, "unit": "%"}, {"measurement": "viability, T/C", "setting": "second compound 1 µM, first compound 0.3 µM", "result": 108, "unit": "%"}, {"measurement": "viability, T/C", "setting": "second compound 3.16 µM, first compound 0.000949 µM", "result": 108, "unit": "%"}, {"measurement": "viability, T/C", "setting": "second compound 3.16 µM, first compound 0.003 µM", "result": 104, "unit": "%"}, {"measurement": "viability, T/C", "setting": "second compound 3.16 µM, first compound 0.00949 µM", "result": 107, "unit": "%"}, {"measurement": "viability, T/C", "setting": "second compound 3.16 µM, first compound 0.03 µM", "result": 106, "unit": "%"}, {"measurement": "viability, T/C", "setting": "second compound 3.16 µM, first compound 0.0949 µM", "result": 117, "unit": "%"}, {"measurement": "viability, T/C", "setting": "second compound 3.16 µM, first compound 0.3 µM", "result": 120, "unit": "%"}, {"measurement": "viability, T/C", "setting": "second compound 10 µM, first compound 0.000949 µM", "result": 96.5, "unit": "%"}, {"measurement": "viability, T/C", "setting": "second compound 10 µM, first compound 0.003 µM", "result": 102, "unit": "%"}, {"measurement": "viability, T/C", "setting": "second compound 10 µM, first compound 0.00949 µM", "result": 102, "unit": "%"}, {"measurement": "viability, T/C", "setting": "second compound 10 µM, first compound 0.03 µM", "result": 99.5, "unit": "%"}, {"measurement": "viability, T/C", "setting": "second compound 10 µM, first compound 0.0949 µM", "result": 93, "unit": "%"}, {"measurement": "viability, T/C", "setting": "second compound 10 µM, first compound 0.3 µM", "result": 90.1, "unit": "%"}]}, {"smiles": "Nc1ccn(C2OC(CO)C(O)C2(F)F)c(=O)n1", "note": "(stereo unspecified)", "values": [{"measurement": "viability, T/C", "setting": "compound 0.0316 µM", "result": "9.07% and 4.89% and 17.2%"}, {"measurement": "viability, T/C", "setting": "compound 0.1 µM", "result": "8.27% and 4.63% and 16.2%"}, {"measurement": "viability, T/C", "setting": "compound 0.316 µM", "result": "8.12% and 4.79% and 17.4%"}, {"measurement": "viability, T/C", "setting": "compound 1 µM", "result": "8.52% and 4.4% and 18.1%"}, {"measurement": "viability, T/C", "setting": "compound 3.16 µM", "result": "9.77% and 4.35% and 19.5%"}, {"measurement": "viability, T/C", "setting": "compound 10 µM", "result": "9.11% and 3.84% and 21.3%"}, {"measurement": "IC50", "setting": "curve of compound", "result": "< 31.6", "unit": "nM"}]}, {"smiles": "CC1(C)CCC(CN2CCN(c3ccc(C(=O)NS(=O)(=O)c4ccc(NCC5CCOCC5)c([N+](=O)[O-])c4)c(Oc4cnc5[nH]ccc5c4)c3)CC2)=C(c2ccc(Cl)cc2)C1", "values": [{"measurement": "viability, T/C", "setting": "compound 0.0316 µM", "result": "97.4% and 103% and 99.8%"}, {"measurement": "viability, T/C", "setting": "compound 0.1 µM", "result": "99.3% and 105% and 95.2%"}, {"measurement": "viability, T/C", "setting": "compound 0.316 µM", "result": "93.9% and 119% and 92.1%"}, {"measurement": "viability, T/C", "setting": "compound 1 µM", "result": "98.4% and 99.1% and 101%"}, {"measurement": "viability, T/C", "setting": "compound 3.16 µM", "result": "85.5% and 109% and 84.2%"}, {"measurement": "IC50", "setting": "curve of compound", "result": "> 10000 nM and 7520 nM and 5330 nM"}]}, {"smiles": "CC(CO)NC(=O)c1cc(-c2ccc(Cl)cc2)nn(-c2cnn(C)c2)c1=O", "note": "(stereo unspecified)", "values": [{"measurement": "viability, T/C", "setting": "compound 1 µM", "result": "98.3% [middle of 21 runs]"}, {"measurement": "viability, T/C", "setting": "compound 10 µM", "result": "85.9% [middle of 19 runs]"}, {"measurement": "IC50", "setting": "compound alone, run of 07/12/2022", "result": "> 10000", "unit": "nM"}]}, {"smiles": "CC1COCCN1c1cc(-c2ccnn2C)c2ccnc(-c3ccn[nH]3)c2n1", "note": "(stereo unspecified) + Cc1ccccc1N=Nc1ccc(NC(=O)c2ccnn2C)c(C)c1", "values": [{"measurement": "IC50", "setting": "[1]", "result": 81.8, "unit": "nM"}, {"measurement": "IC50", "setting": "[2]", "result": 84.5, "unit": "nM"}, {"measurement": "IC50", "setting": "[3]", "result": 88.8, "unit": "nM"}, {"measurement": "IC50", "setting": "[4]", "result": 75.2, "unit": "nM"}, {"measurement": "IC50", "setting": "[5]", "result": 63.6, "unit": "nM"}, {"measurement": "viability, T/C", "setting": "second compound 0.1 µM, first compound 0.00316 µM", "result": 99.9, "unit": "%"}, {"measurement": "viability, T/C", "setting": "second compound 0.1 µM, first compound 0.01 µM", "result": 105, "unit": "%"}, {"measurement": "viability, T/C", "setting": "second compound 0.1 µM, first compound 0.0316 µM", "result": 96.7, "unit": "%"}, {"measurement": "viability, T/C", "setting": "second compound 0.1 µM, first compound 0.1 µM", "result": 40.1, "unit": "%"}, {"measurement": "viability, T/C", "setting": "second compound 0.1 µM, first compound 0.316 µM", "result": 10.2, "unit": "%"}, {"measurement": "viability, T/C", "setting": "second compound 0.1 µM, first compound 1 µM", "result": 8.07, "unit": "%"}, {"measurement": "viability, T/C", "setting": "second compound 0.316 µM, first compound 0.00316 µM", "result": 97.5, "unit": "%"}, {"measurement": "viability, T/C", "setting": "second compound 0.316 µM, first compound 0.01 µM", "result": 102, "unit": "%"}, {"measurement": "viability, T/C", "setting": "second compound 0.316 µM, first compound 0.0316 µM", "result": 93.9, "unit": "%"}, {"measurement": "viability, T/C", "setting": "second compound 0.316 µM, first compound 0.1 µM", "result": 42.4, "unit": "%"}, {"measurement": "viability, T/C", "setting": "second compound 0.316 µM, first compound 0.316 µM", "result": 9.54, "unit": "%"}, {"measurement": "viability, T/C", "setting": "second compound 0.316 µM, first compound 1 µM", "result": 7.22, "unit": "%"}, {"measurement": "viability, T/C", "setting": "second compound 1 µM, first compound 0.00316 µM", "result": 98.8, "unit": "%"}, {"measurement": "viability, T/C", "setting": "second compound 1 µM, first compound 0.01 µM", "result": 106, "unit": "%"}, {"measurement": "viability, T/C", "setting": "second compound 1 µM, first compound 0.0316 µM", "result": 100, "unit": "%"}, {"measurement": "viability, T/C", "setting": "second compound 1 µM, first compound 0.1 µM", "result": 44.1, "unit": "%"}, {"measurement": "viability, T/C", "setting": "second compound 1 µM, first compound 0.316 µM", "result": 9.5, "unit": "%"}, {"measurement": "viability, T/C", "setting": "second compound 1 µM, first compound 1 µM", "result": 7.1, "unit": "%"}, {"measurement": "viability, T/C", "setting": "second compound 3.16 µM, first compound 0.00316 µM", "result": 97.7, "unit": "%"}, {"measurement": "viability, T/C", "setting": "second compound 3.16 µM, first compound 0.01 µM", "result": 104, "unit": "%"}, {"measurement": "viability, T/C", "setting": "second compound 3.16 µM, first compound 0.0316 µM", "result": 92.6, "unit": "%"}, {"measurement": "viability, T/C", "setting": "second compound 3.16 µM, first compound 0.1 µM", "result": 35.9, "unit": "%"}, {"measurement": "viability, T/C", "setting": "second compound 3.16 µM, first compound 0.316 µM", "result": 9.1, "unit": "%"}, {"measurement": "viability, T/C", "setting": "second compound 3.16 µM, first compound 1 µM", "result": 7.15, "unit": "%"}, {"measurement": "viability, T/C", "setting": "second compound 10 µM, first compound 0.00316 µM", "result": 77, "unit": "%"}, {"measurement": "viability, T/C", "setting": "second compound 10 µM, first compound 0.01 µM", "result": 91.9, "unit": "%"}, {"measurement": "viability, T/C", "setting": "second compound 10 µM, first compound 0.0316 µM", "result": 74.3, "unit": "%"}, {"measurement": "viability, T/C", "setting": "second compound 10 µM, first compound 0.1 µM", "result": 33.7, "unit": "%"}, {"measurement": "viability, T/C", "setting": "second compound 10 µM, first compound 0.316 µM", "result": 10.4, "unit": "%"}, {"measurement": "viability, T/C", "setting": "second compound 10 µM, first compound 1 µM", "result": 7.02, "unit": "%"}]}]}
